Converted amounts (≈) assume the structure as drawn. Where two headings read alike, the source gives them in different places.
What was measured:
[1] = Test E pharmacokinetic behavior in dogs; type: in vivo; details: male, beagle, plasma; Dog; 5 mg/kg IV infusion over 15 minutes
Method: (§1) Test E-Pharmacokinetic Behavior or Quinazolinediones vs. 3-Aminoquinazolinediones
(§2) The compounds of the present invention were tested for pharmacokinetic behavior against the structurally related 3-aminoquinazolinediones in rats, dogs and monkeys. The representative result of the evaluation for compound 4b is shown in Table 6 compared to a structurally similar 3-aminoquinazolinedione.
Male Beagle Dogs were dosed with compound dissolved in D5W at 5 mg/kg IV Infusion over 15 minutes. Blood samples will be collected at 0, 0.167, 0.25, 0.33, 0.5, 1, 2, 4, 6, 8, 12 and 24 hours post dose.
(§3) Plasma from all samples were harvested following centrifugaltion and stored frozen until plasma concentrations were determined using liquid chromatography/mass spectroscopy methods. The concentration/time profile for each compound in each animal species was analyzed using non-compartmental pharmacokinetic analysis approach. In the table, clearance is defined as the volume of fluid cleared of drug from the body per unit of time. Clearance is a quantitative assessment of drug elimination. Drug elimination is the irreversible removal of drug from the body by all routes of elimination.

[2] = Test E pharmacokinetic behavior in monkeys; type: in vivo, Male Cynomologous Monkeys; details: male, plasma; Monkey; 5 mg/kg IV infusion over 15 minutes
Method: as §1, §2
Male Cynomologous Monkeys were dosed with compound dissolved in D5W at 5 mg/kg IV Infusion over 15 minutes. Blood samples were collected at 0, 0.167, 0.25, 0.33, 0.5, 1, 2, 4, 6, 8, 12 and 24 hours post dose.
as §3

[3] = Test E pharmacokinetic behavior in rats; type: in vivo; details: male, Wistar, plasma; Rat; 1 mg/kg IV infusion in D5W over 5 minutes
Method: as §1, §2
In this study, compounds were administered to male Wistar rats and were dosed at 1 mg/kgIV infusion in D5W over 5 minutes. Blood samples were drawn at 0, 0.083, 0.167, 0.25, 0.5, 1, 2, 4, 6, 8, 12, and 24 hours post dose.
as §3

E. coli Tol C = assay: Test A antibacterial assay, standard microtitration (MIC); type: cell-based; details: for Minimum Inhibitory Concentrations E. coli Tol C: Gram negative
Method: (§4) Test A-Antibacterial Assay
(§5) The compounds of the present invention were tested against an assortment of Gram-negative and Gram-positive organisms using standard microtitration techniques (Cohen, et al., Antimicrob. Agents Chemother., 1985;28:766; Heifetz, et al., Antimicrob. Agents Chemother:, 1974;6:124). […]

E. faecalis RB1 = assay: as above; type: cell-based; details: Gram positive, E. faecalis RB1
Method: as §4, §5

S. pyogenes C203 = assay: as above; type: cell-based; details: Gram positive, S. pyogenes C203
Method: as §4, §5

E. coli MC 4100 = assay: as above; type: cell-based; details: Gram negative, E. coli MC 4100
Method: as §4, §5

S. aureus 29213 = assay: as above; type: cell-based; details: Gram positive, S. aureus 29213
Method: as §4, §5

E. coli B90 = assay: as above; type: cell-based; details: Gram negative, E. coli B90
Method: as §4, §5

E. coli gyrase = E. coli gyrase (Escherichia coli, UniProt P0AES4+P0AES6); assay: biochemical
N. gonorrhoeae 2709 = assay: Test D cross resistance antibacterial assay (MIC); type: cell-based, Neisseria gonorrhoeae; details: for MIC fold increase N. g. 2709 (in parentheses): relative to MIC against N. g. 2637
Method: (§6) Test D-Cross Resistance Antibacterial Assay
(§7) The compounds of the present invention were tested against an assortment of ciprofloxacin resistant E. coli and S. aureus organisms described below using standard microtitration techniques (Cohen, et al., Antimicrob. Agents Chemother., 1985;28:766; Heifetz, et al., Antimicrob. Agents Chemother., 1974;6:124). […].
N. gonorrhoeae 2709 (N.g. 2709): Isogenic to N. gonorrhoeae 2637 contains gyrA quinolone-resistant determining region (QRDR) mutations (S91F D95G).

S. aureus 2552 = assay: Test D cross resistance antibacterial assay (MIC); type: cell-based; details: for MIC fold increase S. aureus 2552 (in parentheses): relative to MIC against S. aureus UC-76
Method: as §6, §7

S. aureus 2558 = assay: Test D cross resistance antibacterial assay (MIC); type: cell-based; details: for MIC fold increase S. aureus 2558 (in parentheses): relative to MIC against S. aureus UC-76
Method: as §6, §7
S. aureus 2558: Isogenic to S. aureus 2554, with point mutation at position 84 of gyrA subunit.

N. gonorrhoeae 2637 = assay: Test D cross resistance antibacterial assay (MIC); type: cell-based, Neisseria gonorrhoeae; details: parent strain, derivative of MS11
Method: as §6, §7
N. gonorrhoeae 2637 (N.g. 2637) is a derivative of Neisseria gonorrhoeae MS11 containing a TAC-LAC recA to allow for control of homologous recombination [Tonjum T. et al. Molecular Microbiology 1995, 16, 451-64].

N. gonorrhoeae 2693 = assay: Test D cross resistance antibacterial assay (MIC); type: cell-based, Neisseria gonorrhoeae; details: for MIC fold increase N. g. 2693 (in parentheses): relative to MIC against N. g. 2637
Method: as §6, §7
N. gonorrhoeae 2693 (N.g. 2693): Isogenic to N. gonorrhoeae 2709 containing parC QRDR mutations [P88S and E91K].

S. aureus UC-76 = assay: Test D cross resistance antibacterial assay (MIC); type: cell-based; details: wild type sensitive laboratory strain
Method: as §6, §7
S. aureus UC-76: Typical sensitive laboratory strain (Wild type).

S. aureus 2554 = assay: Test D cross resistance antibacterial assay (MIC); type: cell-based; details: for MIC fold increase S. aureus 2554 (in parentheses): relative to MIC against S. aureus UC-76
Method: as §6, §7
S. aureus 2554: Isogenic to S. aureus 2552, with point mutation at position 80 of grlA subunit.

S. pyogenes = assay: Test C in vivo activity, median protective dose in mice given lethal systemic infections; details: PO, lethal systemic infection with S. pyogenes

E. coli gyrase, sequence (P0AES4 whole entry, one chain of several): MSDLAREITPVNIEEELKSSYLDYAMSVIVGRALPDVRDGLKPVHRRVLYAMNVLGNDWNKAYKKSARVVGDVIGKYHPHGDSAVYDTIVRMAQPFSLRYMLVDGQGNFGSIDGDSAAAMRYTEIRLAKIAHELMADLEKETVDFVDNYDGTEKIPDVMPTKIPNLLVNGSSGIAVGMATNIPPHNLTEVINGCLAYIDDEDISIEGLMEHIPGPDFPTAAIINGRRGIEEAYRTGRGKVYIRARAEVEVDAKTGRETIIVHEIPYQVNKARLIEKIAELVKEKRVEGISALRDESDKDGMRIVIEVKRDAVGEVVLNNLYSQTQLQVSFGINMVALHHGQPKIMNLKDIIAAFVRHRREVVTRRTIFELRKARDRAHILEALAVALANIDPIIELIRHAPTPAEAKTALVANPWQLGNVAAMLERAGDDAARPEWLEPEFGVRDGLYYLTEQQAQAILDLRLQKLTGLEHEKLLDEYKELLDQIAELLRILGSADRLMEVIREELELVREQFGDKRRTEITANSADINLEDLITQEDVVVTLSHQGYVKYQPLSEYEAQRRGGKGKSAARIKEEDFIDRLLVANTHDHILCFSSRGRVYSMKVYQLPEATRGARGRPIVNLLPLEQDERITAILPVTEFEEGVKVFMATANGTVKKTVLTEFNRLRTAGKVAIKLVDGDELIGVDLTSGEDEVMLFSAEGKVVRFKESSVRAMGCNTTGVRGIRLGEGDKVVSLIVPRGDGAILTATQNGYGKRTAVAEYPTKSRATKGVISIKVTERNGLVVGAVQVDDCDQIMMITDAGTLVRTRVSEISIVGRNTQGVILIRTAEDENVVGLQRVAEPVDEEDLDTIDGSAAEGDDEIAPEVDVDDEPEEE

Molecule | Minimum Inhibitory Concentrations E. coli Tol C (E. coli Tol C) | Minimum Inhibitory Concentrations E. faecalis RB1 (E. faecalis RB1) | Minimum Inhibitory Concentrations S. pyogenes C203 (S. pyogenes C203) | Minimum Inhibitory Concentrations E. coli MC 4100 (E. coli MC 4100) | Minimum Inhibitory Concentrations S. aureus 29213 (S. aureus 29213) | Minimum Inhibitory Concentrations E. coli B90 (E. coli B90) | IC50 (E. coli gyrase) | MIC fold increase N. g. 2709 (in parentheses) (N. gonorrhoeae 2709) | MIC fold increase S. aureus 2552 (in parentheses) (S. aureus 2552) | MIC fold increase S. aureus 2558 (in parentheses) (S. aureus 2558) | MIC fold increase N. g. 2693 (in parentheses) (N. gonorrhoeae 2693) | MIC fold increase S. aureus 2554 (in parentheses) (S. aureus 2554) | also measured
Cc1c(N2CC[C@@H]([C@H](C)N)C2)c(F)cc2c(=O)[nH]c(=O)n(C3CC3)c12 [drawing 387] | – | – | – | – | – | – | – | – | – | – | – | – | clearance [1]: 8.7 mL/min/kg; half-life [1]: 6.3 h; clearance [2]: 17 mL/min/kg; half-life [2]: 4.1 h; clearance [3]: 47 mL/min/kg; half-life [3]: 1.9 h
Cc1c(N2CCC(C(N)CF)C2)c(F)cc2c(=O)[nH]c(=O)n(C3CC3)c12.Cl (stereo not shown) [Example 19f, 7-[3-(1-Amino-2-fluoroethyl)pyrrolidin-1-yl]-1-cyclopropyl-6-fluoro-8-methyl-1H-quinazolinedione Hydrochloride] | 0.13 µg/mL | 0.06 µg/mL | 0.06 µg/mL | 4.0 µg/mL | 0.13 µg/mL | 0.25 µg/mL | – | – | – | – | – | – | IC50 (E. coli gyrase; supercoiling of relaxed pBR322, 30 minutes at 37° C.): 1800 nM
7-[(R)-3-((S)-1-Aminoethyl)pyrrolidin-1-yl]-1-cyclopropyl-6-fluoro-5,8-dimethyl-1H-quinazolinedione Hydrochloride [Example 41c] | 0.06 µg/mL | 0.03 µg/mL | 0.008 µg/mL | 2.0 µg/mL | 0.03 µg/mL | 0.25 µg/mL | 600 nM | – | – | – | – | – | –
7-(3-[1-Amino-1-(2-fluorophenyl)methyl]pyrrolidin-1-yl}-1-cyclopropyl-6-fluoro-6-methyl-1H-quinazolinedione Hydrochloride [Example 7j] | 0.06 µg/mL | 0.25 µg/mL | 0.03 µg/mL | 8.0 µg/mL | 0.13 µg/mL | 0.25 µg/mL | 800 nM | (4x) | (1x) | (1x) | (8x) | (1x) | Minimum Inhibitory Concentrations N. g. 2709 (N. gonorrhoeae 2709; gyrA QRDR mutations (S91F D95G)): 0.5 µg/mL; Minimum Inhibitory Concentrations S. aureus 2552 (S. aureus 2552; upregulated norA pump): 0.06 µg/mL; Minimum Inhibitory Concentrations S. aureus 2558 (S. aureus 2558; norA, grlA plus point mutation at position 84 of gyrA): 0.06 µg/mL; Minimum Inhibitory Concentrations N. g. 2637 (N. gonorrhoeae 2637): 0.13 µg/mL; Minimum Inhibitory Concentrations N. g. 2693 (N. gonorrhoeae 2693; gyrA plus parC QRDR mutations [P88S and E91K]): 1.0 µg/mL; Minimum Inhibitory Concentrations S. aureus UC-76 (S. aureus UC-76): 0.06 µg/mL; Minimum Inhibitory Concentrations S. aureus 2554 (S. aureus 2554; norA plus point mutation at position 80 of grlA): 0.06 µg/mL
O=C(O)c1cn(C2CC2)c2cc(N3CCNCC3)c(F)cc2c1=O [Ciprofloxacin, ciprofloxacin, reference compound] | – | – | – | – | – | – | – | (30x) | (15x) | (123x) | (1000x) | (15x) | MIC (N. gonorrhoeae 2709; Neisseria gonorrhoeae, 2709, read-out: Minimum Inhibitory Concentrations N. g. 2709): 0.06 µg/mL (≈ 0.181 µM); MIC (S. aureus 2552; Staphylococcus aureus, 2552, upregulated norA pump, read-out: Minimum Inhibitory Concentrations S. aureus 2552): 2 µg/mL (≈ 6.04 µM); MIC (E. coli Tol C; Escherichia coli, read-out: Minimum Inhibitory Concentrations E. coli Tol C): < 0.01 µg/mL; MIC (E. faecalis RB1; Enterococcus faecalis, read-out: Minimum Inhibitory Concentrations E. faecalis RB1): 0.5 µg/mL (≈ 1.51 µM); MIC (S. pyogenes C203; Streptococcus pyogenes, read-out: Minimum Inhibitory Concentrations S. pyogenes C203): 0.5 µg/mL (≈ 1.51 µM); MIC (E. coli MC 4100; Escherichia coli, MC4100, read-out: Minimum Inhibitory Concentrations E. coli MC 4100): < 0.02 µg/mL; MIC (S. aureus 29213; Staphylococcus aureus, read-out: Minimum Inhibitory Concentrations S. aureus 29213): 0.5 µg/mL (≈ 1.51 µM); MIC (E. coli B90; Escherichia coli, read-out: Minimum Inhibitory Concentrations E. coli B90): < 0.01 µg/mL; MIC (N. gonorrhoeae 2637; Neisseria gonorrhoeae, 2637, read-out: Minimum Inhibitory Concentrations N. g. 2637): 0.002 µg/mL; PD50 (S. pyogenes): >100.0 mg/kg; MIC (S. aureus UC-76; Staphylococcus aureus, UC76, read-out: Minimum Inhibitory Concentrations S. aureus UC-76): 0.13 µg/mL (≈ 0.392 µM)
